Activity calls are given as the source filed them. The calls are words filed in the database; no cut-off is given here.
How the values were obtained:
Poliovirus 2 [1] = assay: Antiviral activity against Poliovirus type 2 infected in african green monkey Vero cells assessed as reduction in viral titer at 5 ug/mL; assay type: functional, organism-based
Human adenovirus 2 [2] = assay: Antiviral activity against 10^-2 MOI Human adenovirus 2 infected in african green monkey Vero cells assessed as inhibition of virus-induced cytopathic effect; assay type: functional; details: Human mastadenovirus C, read-out: ED50 (the source's name)
Human adenovirus 2 [3] = assay: Antiviral activity against 10^-3 MOI Human adenovirus 2 infected in african green monkey Vero cells assessed as inhibition of virus-induced cytopathic effect; assay type: functional; details: Human mastadenovirus C, read-out: ED50 (the source's name)
[4] = Therapeutic index, ratio of CyD50 for african green monkey Vero cells to ED50 for 10^-2 MOI Human adenovirus 2; assay type: cell-based; details: read-out: TI
Human alphaherpesvirus 1 [5] = assay: Antiviral activity against 10^-2 MOI HSV1 infected in african green monkey Vero cells assessed as inhibition of virus-induced cytopathic effect; assay type: functional, organism-based
Human alphaherpesvirus 1 [6] = assay: Antiviral activity against 10^-3 MOI HSV1 infected in african green monkey Vero cells assessed as inhibition of virus-induced cytopathic effect; assay type: functional; details: Human alphaherpesvirus 1, Vero; read-out: ED50 (the source's name)
[7] = Therapeutic index, ratio of CyD50 for african green monkey Vero cells to ED50 for 10^-3 MOI HSV1; assay type: cell-based; details: read-out: TI
Human alphaherpesvirus 2 [8] = assay: Antiviral activity against 10^-2 MOI HSV2 infected in african green monkey Vero cells assessed as inhibition of virus-induced cytopathic effect; assay type: functional; details: Human alphaherpesvirus 2, Vero; read-out: ED50 (the source's name)
Human alphaherpesvirus 2 [9] = assay: Antiviral activity against 10^-3 MOI HSV2 infected in african green monkey Vero cells assessed as inhibition of virus-induced cytopathic effect; assay type: functional; details: Human alphaherpesvirus 2, Vero; read-out: ED50 (the source's name)
[10] = Therapeutic index, ratio of CyD50 for african green monkey Vero cells to ED50 for 10^-2 MOI HSV2; assay type: cell-based; details: read-out: TI
[11] = system: Vesicular stomatitis virus; assay: Antiviral activity against 10^-2 MOI VSV infected in african green monkey Vero cells assessed as inhibition of virus-induced cytopathic effect; assay type: functional; details: read-out: ED50 (the source's name)
[12] = system: Vesicular stomatitis virus; assay: Antiviral activity against 10^-3 MOI VSV infected in african green monkey Vero cells assessed as inhibition of virus-induced cytopathic effect; assay type: functional; details: read-out: ED50 (the source's name)
[13] = Therapeutic index, ratio of CyD50 for african green monkey Vero cells to ED50 for 10^-2 MOI VSV; assay type: cell-based; details: read-out: TI
[14] = Therapeutic index, ratio of CyD50 for african green monkey Vero cells to ED50 for 10^-3 MOI VSV; assay type: cell-based; details: read-out: TI
Poliovirus 2 [15] = assay: Antiviral activity against 10^-2 MOI Poliovirus type 2 infected in african green monkey Vero cells assessed as inhibition of virus-induced cytopathic effect; assay type: functional; details: Enterovirus C, read-out: ED50 (the source's name)
Poliovirus 2 [16] = assay: Antiviral activity against 10^-3 MOI Poliovirus type 2 infected in african green monkey Vero cells assessed as inhibition of virus-induced cytopathic effect; assay type: functional; details: Enterovirus C, read-out: ED50 (the source's name)
[17] = Therapeutic index, ratio of CyD50 for african green monkey Vero cells to ED50 for 10^-2 MOI Poliovirus 2; assay type: cell-based; details: read-out: TI
[18] = Therapeutic index, ratio of CyD50 for african green monkey Vero cells to ED50 for 10^-3 MOI Poliovirus 2; assay type: cell-based; details: read-out: TI
[19] = Therapeutic index, ratio of CyD50 for african green monkey Vero cells to ED50 for 10^-3 MOI Human adenovirus 2; assay type: cell-based; details: read-out: TI
[20] = Therapeutic index, ratio of CyD50 for african green monkey Vero cells to ED50 for 10^-3 MOI HSV2; assay type: cell-based; details: read-out: TI
Vero [21] = assay: Cytotoxicity against african green monkey Vero cells up to 200 uM after 96 hrs; assay type: cell-based; details: chlorocebus sabaeus
Vero [22] = assay: Cytotoxicity against african green monkey Vero cells up to 800 uM after 96 hrs; assay type: cell-based; details: chlorocebus sabaeus
Vero [23] = assay: Cytotoxicity against african green monkey Vero cells assessed as cell lysis at >200 uM after 96 hrs; assay type: cell-based; details: chlorocebus sabaeus
Poliovirus 2 [24] = assay: Antiviral activity against Poliovirus type 2 infected in african green monkey Vero cells assessed as log reduction in viral titer at 1.12 ug/mL; assay type: functional
Human adenovirus 2 [25] = assay: Antiviral activity against Human adenovirus 2 infected in african green monkey Vero cells assessed as log reduction in viral titer; assay type: functional
Human alphaherpesvirus 2 [26] = assay: Antiviral activity against HSV2 infected in african green monkey Vero cells assessed as log reduction in viral titer; assay type: functional
[27] = system: Vesicular stomatitis virus; assay: Antiviral activity against VSV infected in african green monkey Vero cells assessed as log reduction in viral titer; assay type: functional
Human alphaherpesvirus 1 [28] = assay: Antiviral activity against HSV1 infected in african green monkey Vero cells assessed as log reduction in viral titer; assay type: functional
Vero [29] = assay: Cytotoxicity against african green monkey Vero cells assessed as cell lysis at >800 uM after 96 hrs; assay type: cell-based; details: chlorocebus sabaeus

## COc1c(-c2ccc(O)c(O)c2)oc2cc(O)cc(O)c2c1=O
Poliovirus 2 [1]
  Activity: Active

## COc1cc(-c2oc3c(OC)c(OC)cc(O)c3c(=O)c2OC)ccc1O [TERNATIN]
Human adenovirus 2 [2]
  EC50: 10 µM
Human adenovirus 2 [3]
  EC50: 10 µM
[4]
  selectivity ratio: 20
Human alphaherpesvirus 1 [5]
  ED50: inactive
Human alphaherpesvirus 1 [6]
  EC50: 44 µM
[7]
  selectivity ratio: 4.6
Human alphaherpesvirus 2 [8]
  EC50: 100 µM
Human alphaherpesvirus 2 [9]
  EC50: 14 µM
[10]
  selectivity ratio: 2
[11]
  EC50: 48 µM
[12]
  EC50: 38 µM
[13]
  selectivity ratio: 4.2
[14]
  selectivity ratio: 5.2
Poliovirus 2 [15]
  EC50: 4 µM
Poliovirus 2 [16]
  EC50: 3 µM
[17]
  selectivity ratio: 50
[18]
  selectivity ratio: 66.6
[19]
  selectivity ratio: 20
[20]
  selectivity ratio: 14.4
Vero [21]
  Activity: Non-toxic
Vero [22]
  Activity: Non-toxic
Vero [23]
  Activity: Toxic
Poliovirus 2 [24]
  Activity: 5
Human adenovirus 2 [25]
  Activity: 3
Human alphaherpesvirus 2 [26]
  Activity: 2
[27]
  Activity: 2
Human alphaherpesvirus 1 [28]
  Activity: 1

## COc1c(-c2ccc3c(c2)OCO3)oc2cc3c(c(OC)c2c1=O)OCO3 [MELITERNATIN]
Vero [29]
  Activity: Toxic

Reference: ChEMBL document CHEMBL1158919, “Antiviral Activity of Ternatin and Meliternatin, 3-Methoxyflavones from Species of Rutaceae” (J Nat Prod, 1990)
